This note sets out measurements from patent publication US9498480B2 (Bayer Intellectual Property GmbH, priority 2012, dated 2016).

This assay concerns recombinant guanylate cyclase reporter cell line. The assay can be described thus: Effect on a recombinant guanylate cyclase reporter cell line. The class given is cell-based. Conditions: representative values, read-out: MEC (minimum effective concentration). The method, then: B-2. Effect on a Recombinant Guanylate Cyclase Reporter Cell Line
The cellular activity of the compounds according to the invention is determined using a recombinant guanylate cyclase reporter cell line, as described in F. Wunder et al., Anal. Biochem. 339, 104-112 (2005).

Take `Nc1nc(-c2nn(Cc3ncccc3F)c3ncc(F)cc23)nc2ncccc12` [Example 3, 2-{5-Fluoro-1-[(3-fluoropyridin-2-yl)methyl]-1H-pyrazolo[3,4-b]pyridin-3-yl}pyrido[2,3-d]pyrimidine-4-amine]: the minimal effective concentration is 10 µM.
For `Cc1n[nH]c2nc(-c3nn(Cc4ncccc4F)c4ncc(F)cc34)nc(N)c12` [Example 1, 6-{5-Fluoro-1-[(3-fluoropyridin-2-yl)methyl]-1H-pyrazolo[3,4-b]pyridin-3-yl}-3-methyl-1H-pyrazolo[3,4-d]pyrimidine-4-amine], the minimal effective concentration is 0.3 µM.
On to `Nc1nc(-c2nn(CCC(F)(F)C(F)(F)F)c3ncc(F)cc23)nc2ncccc12` [Example 10, 2-[5-Fluoro-1-(3,3,4,4,4-pentafluorobutyl)-1H-pyrazolo[3,4-b]pyridin-3-yl]pyrido[2,3-d]pyrimidine-4-amine], for which the minimal effective concentration turned out to be 0.3 µM.
Take `COc1n[nH]c2nc(-c3nn(Cc4ncccc4F)c4ncc(F)cc34)nc(N)c12` [Example 4, 6-{5-Fluoro-1-[(3-fluoropyridin-2-yl)methyl]-1H-pyrazolo[3,4-b]pyridin-3-yl}-3-methoxy-1H-pyrazolo[3,4-d]pyrimidine-4-amine]: the minimal effective concentration came to 0.3 µM.
For the compound `Cc1n[nH]c2nc(-c3nn(CCC(F)(F)C(F)(F)F)c4ncc(F)cc34)nc(N)c12` [Example 8, 6-[5-Fluoro-1-(3,3,4,4,4-pentafluorobutyl)-1H-pyrazolo[3,4-b]pyridin-3-yl]-3-methyl-1H-pyrazolo[3,4-d]pyrimidine-4-amine], the minimal effective concentration worked out at 0.1 µM.
With `CCN(CC)c1n[nH]c2nc(-c3nn(Cc4ncccc4F)c4ncc(F)cc34)nc(N)c12` [Example 2, N^3,N^3-Diethyl-6-{5-fluoro-1-[(3-fluoropyridin-2-yl)methyl]-1H-pyrazolo[3,4-b]pyridin-3-yl}-1H-pyrazolo[3,4-d]pyrimidine-3,4-diamine], the minimal effective concentration was determined as 0.1 µM.
In the case of `O=c1[nH]c2nc(-c3nn(Cc4ccccc4F)c4ncc(F)cc34)nc(NCC3CC3)c2n1CC(F)(F)F` [Example 5, 6-[(Cyclopropylmethyl)amino]-2-[5-fluoro-1-(2-fluorobenzyl)-1H-pyrazolo[3,4-b]pyridin-3-yl]-7-(2,2,2-trifluoroethyl)-7,9-dihydro-8H-purin-8-one], the minimal effective concentration turned out to be 0.3 µM.
Take `CCN(CC)c1n[nH]c2nc(-c3nn(CCC(F)(F)C(F)(F)F)c4ncc(F)cc34)nc(N)c12` [Example 9]: the minimal effective concentration came to 0.03 µM.
The value for `Cc1n[nH]c2nc(-c3nc(Cc4ccccc4F)n4ncccc34)nc(N)c12` [Example 7, 6-[7-(2-Fluorobenzyl)imidazo[1,5-b]pyridazin-5-yl]-3-methyl-1H-pyrazolo[3,4-d]pyrimidine-4-amine] was 0.01 µM.
